Source: PMC6471427, “Halogen-Substituted Triazolethioacetamides as a Potent Skeleton for the Development of Metallo-β-Lactamase Inhibitors” (Molecules, 2019)
Where two headings read alike, the source gives them in different places.

Assays:
[1] = molecular target: T1, NDM-1 (Klebsiella pneumoniae, UniProt C7C422); assay: Inhibition of NDM-1 with cefazolin as substrate (UV-vis kinetics); type: biochemical; settings: read-out: IC50 against NDM-1
T1 construct: made in house
Text: (§1) To test whether these halogen-substituted triazolethioacetamides were inhibitors of the MβLs, three subclasses MβLs B1(VIM-2 and NDM-1), B2 (ImiS), and B3 (L1) were expressed and purified as previously described. […] On the whole, triazolethioacetamides containing chlorine (1–8) increase the inhibitory potency slightly on average compared to those containing fluorine (9–12), but the presence of trifluoromethoxy (13) is beneficial to increase the inhibitory activity. […] Furthermore, replacement of two hydrogen at the anilino group with chlorine (4 and 5) or fluorine (12) relatively reduces the inhibitory activity, especially compound 12 with two fluorine at 2,5-position of anilino group.
(§2) The inhibition studies were carried out on an Agilent UV 8453 spectrophotometer at 25 °C using cefazolin as substrate of […], NDM-1, and L1 and imipenem as substrate of ImiS. Inhibitors 1–13 were dissolved in DMSO and then diluted with Tris-HCl, pH 7.0. The substrate concentrations were varied between 25 and 400 μM, and inhibitor concentrations were varied between 125 nM and 1 mΜ. The enzyme and inhibitor were pre-incubated for 30 min before starting the kinetic experiments. The IC50 values for all analyzed compounds were calculated based on the kinetic data. The mode of inhibition was determined by generating Lineweaver-Burk plots of the data, and the Ki was determined by replotting the data for slope and intercept versus […].

[2] = molecular target: T2, ImiS (Aeromonas veronii, UniProt O31272); assay: Inhibition of ImiS-catalysed hydrolysis of imipenem (UV-vis kinetics; IC50, Ki, mode); type: biochemical; settings: for Inhibition mode against ImiS: Lineweaver-Burk plots
T2 construct: made in house
Text: as §1, §2

[3] = molecular target: T3, VIM-2 (Escherichia coli, UniProt Q5U7L7); assay: Inhibition of VIM-2 (UV-vis kinetics); type: biochemical; settings: 25 °C, Tris-HCl pH 7.0, 30 min pre-incubation; read-out: IC50 against VIM-2
T3 construct: made in house
Text: as §1, §2

[4] = molecular target: MβLs; parameters: method as in PMID 11564740; settings: broad spectrum MβLs inhibitor; read-out: Ki against MβLs; cited from earlier work
[5] = 25 °C, Tris-HCl pH 7.0, 30 min pre-incubation

T2 sequence (O31272 28-255): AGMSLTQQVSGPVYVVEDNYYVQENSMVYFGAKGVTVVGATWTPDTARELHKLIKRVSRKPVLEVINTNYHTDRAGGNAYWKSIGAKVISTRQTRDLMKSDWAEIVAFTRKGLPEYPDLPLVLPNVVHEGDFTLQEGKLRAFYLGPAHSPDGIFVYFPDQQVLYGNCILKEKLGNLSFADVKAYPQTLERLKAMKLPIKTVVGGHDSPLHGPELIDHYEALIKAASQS
T1 sequence (C7C422 29-270, looked up, species assumed): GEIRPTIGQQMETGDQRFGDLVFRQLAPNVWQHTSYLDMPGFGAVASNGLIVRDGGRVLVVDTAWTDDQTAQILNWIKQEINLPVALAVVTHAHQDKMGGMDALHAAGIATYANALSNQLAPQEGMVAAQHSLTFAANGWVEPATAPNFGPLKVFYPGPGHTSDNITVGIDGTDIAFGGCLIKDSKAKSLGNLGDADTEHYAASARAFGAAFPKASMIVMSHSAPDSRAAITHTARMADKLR

SMILES | IC50 [1, 5] [nM] | IC50 [2] [µM] | Inhibitory activity against ImiS (in words) ([2]; imipenem as substrate) | IC50 [3] [µM] | Ki [4] [µM] | Ki [2] [µM] | Inhibition mode against ImiS ([2]; imipenem as substrate) | IC50 ([1]; value in nM) [nM]
O=C(CSc1nnc(-c2ccccc2O)[nH]1)Nc1ccc(F)cc1 [Compound 11] | > 1e+06 | > 50 | nearly had no inhibitory activity | > 1000 |  |  |  | 
O=C(CSc1nnc(-c2ccccc2O)[nH]1)Nc1c(F)cccc1F [Compound 12] | > 1e+06 | 15.6 ± 3 |  | 38.9 ± 5 |  |  |  | 
O=C(CSc1nnc(-c2ccccc2O)[nH]1)Nc1ccc(Cl)cc1Cl [Compound 5] | > 1e+06 | 0.16 ± 0.03 |  | > 1000 |  |  |  | 
O=C(O)C(S)c1ccccc1 (single isomer, unassigned) [S-isomer, thiomandelic acid] |  |  |  |  | 1.28 |  |  | 
O=C(CSc1nnc(-c2ccccc2O)[nH]1)Nc1ccc(Cl)c(Cl)c1 [Compound 4] | > 1e+06 | 0.27 ± 0.02 |  | > 1000 |  |  |  | 
O=C(CSc1nnc(-c2ccccc2O)[nH]1)Nc1cccc(F)c1 [Compound 10] | > 1e+06 | 0.98 ± 0.04 |  | > 1000 |  |  |  | 
O=C(CSc1nnc(-c2ccccc2O)[nH]1)Nc1ccc([N+](=O)[O-])cc1Cl [Compound 8] | > 1e+06 | 0.26 ± 0.03 |  | > 1000 |  |  |  | 
O=C(CSc1nnc(-c2ccccc2O)[nH]1)Nc1ccccc1F [Compound 9] | > 1e+06 | 0.072 ± 0.005 |  | > 1000 |  | 0.074 | mixed inhibitors | 
O=C(CSc1nnc(-c2ccccc2O)[nH]1)Nc1ccc(Cl)cc1[N+](=O)[O-] [Compound 6] | > 1e+06 | 0.78 ± 0.08 |  | > 1000 |  |  |  | 
O=C(CSc1nnc(-c2ccccc2O)[nH]1)Nc1ccc(OC(F)(F)F)cc1 [Compound 13] | > 1e+06 | 0.23 ± 0.09 |  | 2.8 ± 0.3 |  | 0.27 | mixed inhibitors | 
O=C(CSc1nnc(-c2ccccc2O)[nH]1)Nc1ccccc1Cl [Compound 1] | 960 ± 70 | 0.032 |  | > 1000 |  |  |  | 
O=C(CSc1nnc(-c2ccccc2O)[nH]1)Nc1cc(Cl)ccc1[N+](=O)[O-] [Compound 7] | > 1e+06 | 0.2 ± 0.04 |  | > 1000 |  |  |  | 
O=C(CSc1nnc(-c2ccccc2O)[nH]1)Nc1ccc(Cl)cc1 [Compound 3] | 370 ± 50 | 0.051 ± 0.006 |  | > 1000 |  |  |  | 
O=C(O)C(S)c1ccccc1 (centres unmarked) [rthiomandelic acid, thiomandelic acid] |  |  |  |  | 0.09 |  |  | 
O=C(CSc1nnc(-c2ccccc2O)[nH]1)Nc1cccc(Cl)c1 [Compound 2] | 170 ± 20 | 0.045 ± 0.002 |  | > 1000 |  |  |  | 170
